Laboratory results published in US20070010671A1, “Novel quinazoline derivatives and methods of treatment related to the use thereof” (priority 2003, published 2007).

target: MCH receptor (Homo sapiens, UniProt Q99705); assay: High throughput functional screening FLIPR/FDSS6000: inhibition of MCH-evoked intracellular Ca2+ changes; format: cell-based; details: class by percent of control at 10^-7 M or IC50
Summary of the method: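 Seed cells the day before, then load them with Fluo4-AM for one hour at 37° C and wash in HEPES-buffered HBSS, pH 7.4. Add compound for 3 min, then stimulate with 50 nM MCH. Monitor the calcium transient for 290 s.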

SMILES | class
CN(C)c1nc(N[C@H]2CC[C@@H](NC(=S)Nc3ccc4c(c3)OCO4)CC2)nc2ccccc12 [compound 370, N-1,3-benzodioxol-5-yl-N′-(cis-4-{[4-(dimethylamino)quinazolin-2-yl]amino}cyclohexyl)thiourea] | 1 (Class 1: The value of percent of control at 10^−7 M was less than 40% or the value of IC50 was less than 50 nM.)
COc1ccc(NC(=S)NC[C@H]2CC[C@@H](Nc3nc(N(C)C)c4ccccc4n3)CC2)c(OC)c1 [compound 590] | 3 (Class 3: The value of percent of control at 10^−7 M was more than 60% or the value of IC50 was more than 200 nM.)
CN(C)c1nc(N[C@H]2CC[C@@H](CNC(=O)Nc3ccc(Br)cc3Br)CC2)nc2ccccc12 [compound 477] | 3 (Class 3: The value of percent of control at 10^−7 M was more than 60% or the value of IC50 was more than 200 nM.)
CN(C)c1nc(N[C@H]2CC[C@@H](CNC(=O)Nc3ccc(OC(F)(F)F)cc3)CC2)nc2ccccc12 [compound 752] | 3 (Class 3: The value of percent of control at 10^−7 M was more than 60% or the value of IC50 was more than 200 nM.)
CN(C)c1nc(N[C@H]2CC[C@@H](CNC(=S)Nc3cc(C(F)(F)F)ccc3F)CC2)nc2ccccc12 [compound 641] | 3 (Class 3: The value of percent of control at 10^−7 M was more than 60% or the value of IC50 was more than 200 nM.)
CN(C)c1nc(N[C@H]2CC[C@@H](CNC(=O)Nc3cccs3)CC2)nc2ccccc12 [compound 761] | 3 (Class 3: The value of percent of control at 10^−7 M was more than 60% or the value of IC50 was more than 200 nM.)
CN(C)c1nc(N[C@H]2CC[C@@H](CNC(=O)Nc3ccc4c(c3)OCCCO4)CC2)nc2ccccc12 [compound 763] | 3 (Class 3: The value of percent of control at 10^−7 M was more than 60% or the value of IC50 was more than 200 nM.)
CN(C)c1nc(N[C@H]2CC[C@@H](CNC(=O)Nc3ccccc3Cc3ccccc3)CC2)nc2ccccc12 [compound 485] | 3 (Class 3: The value of percent of control at 10^−7 M was more than 60% or the value of IC50 was more than 200 nM.)
CN(C)c1nc(N[C@H]2CC[C@@H](NC(=S)Nc3cc(Cl)c(Cl)c(Cl)c3Cl)CC2)nc2ccccc12 [compound 243] | 3 (Class 3: The value of percent of control at 10^−7 M was more than 60% or the value of IC50 was more than 200 nM.)
CN(C)c1nc(N[C@H]2CC[C@@H](NC(=S)Nc3ccc(SC(F)(F)F)cc3)CC2)nc2ccccc12 [compound 232] | 3 (Class 3: The value of percent of control at 10^−7 M was more than 60% or the value of IC50 was more than 200 nM.)
CN(C)c1nc(N[C@H]2CC[C@@H](CNC(=S)Nc3cc(F)ccc3Br)CC2)nc2ccccc12 [compound 785] | 3 (Class 3: The value of percent of control at 10^−7 M was more than 60% or the value of IC50 was more than 200 nM.)
Cc1onc(-c2ccccc2)c1NC(=O)NC[C@H]1CC[C@@H](Nc2nc(N(C)C)c3ccccc3n2)CC1 [compound 776] | 2 (Class 2: The value of percent of control at 10^−7 M was from 40% to 60% or the value of IC50 was from 50 nM to 200 nM.)
CSc1cccc(NC(=S)N[C@H]2CC[C@@H](Nc3nc(N(C)C)c4ccccc4n3)CC2)c1 [compound 257] | 3 (Class 3: The value of percent of control at 10^−7 M was more than 60% or the value of IC50 was more than 200 nM.)
CN(C)c1nc(N[C@H]2CC[C@@H](NC(=S)Nc3cc([N+](=O)[O-])ccc3Cl)CC2)nc2ccccc12 [compound 298] | 3 (Class 3: The value of percent of control at 10^−7 M was more than 60% or the value of IC50 was more than 200 nM.)
CN(C)c1nc(N[C@H]2CC[C@@H](CNC(=S)NCc3ccco3)CC2)nc2ccccc12 [compound 598] | 3 (Class 3: The value of percent of control at 10^−7 M was more than 60% or the value of IC50 was more than 200 nM.)
COc1ccc(C)cc1NC(=S)NC[C@H]1CC[C@@H](Nc2nc(N(C)C)c3ccccc3n2)CC1 [compound 645] | 3 (Class 3: The value of percent of control at 10^−7 M was more than 60% or the value of IC50 was more than 200 nM.)
COc1ccc(NC(=S)N[C@H]2CC[C@@H](Nc3nc(N(C)C)c4ccccc4n3)CC2)cc1OC [compound 204] | 1 (Class 1: The value of percent of control at 10^−7 M was less than 40% or the value of IC50 was less than 50 nM.)
CN(C)c1nc(N[C@H]2CC[C@@H](NC(=S)NCc3cccc4ccccc34)CC2)nc2ccccc12 [compound 289, N-(cis-4-{[4-(dimethylamino)quinazolin-2-yl]amino}cyclohexyl)-N′-(1-naphthylmethyl)thiourea] | 1 (Class 1: The value of percent of control at 10^−7 M was less than 40% or the value of IC50 was less than 50 nM.)
CN(C)c1nc(N[C@H]2CC[C@@H](NC(=S)Nc3cc(F)cc(F)c3)CC2)nc2ccccc12 [compound 224] | 3 (Class 3: The value of percent of control at 10^−7 M was more than 60% or the value of IC50 was more than 200 nM.)
C[C@@H](NC(=S)NC[C@H]1CC[C@@H](Nc2nc(N(C)C)c3ccccc3n2)CC1)c1ccccc1 [compound 749] | 3 (Class 3: The value of percent of control at 10^−7 M was more than 60% or the value of IC50 was more than 200 nM.)
CN(C)c1nc(N[C@H]2CC[C@@H](CNC(=O)Nc3c(Cl)cc(Cl)cc3Cl)CC2)nc2ccccc12 [compound 463, N-[(cis-4-{[4-(dimethylamino)quinazolin-2-yl]amino}cyclohexyl)methyl]-N′-(2,4,6-trichlorophenyl)urea] | 1 (Class 1: The value of percent of control at 10^−7 M was less than 40% or the value of IC50 was less than 50 nM.)
CN(C)c1nc(N[C@H]2CC[C@@H](NC(=S)Nc3ccc4c(c3)OCCO4)CC2)nc2ccccc12 [compound 368, N-(2,3-dihydro-1,4-benzodioxin-6-yl)-N′-(cis-4-{[4-(dimethylamino)quinazolin-2-yl]amino}cyclohexyl)thiourea] | 1 (Class 1: The value of percent of control at 10^−7 M was less than 40% or the value of IC50 was less than 50 nM.)
COc1ccc(Cl)cc1NC(=S)NC[C@H]1CC[C@@H](Nc2nc(N(C)C)c3ccccc3n2)CC1 [compound 706] | 2 (Class 2: The value of percent of control at 10^−7 M was from 40% to 60% or the value of IC50 was from 50 nM to 200 nM.)

same assay, conditions: class by percent of control at 10^-7 M or by IC50; read-out: class

IC50 [nM] | SMILES
50 to 200 | CN(C)c1nc(N[C@H]2CC[C@@H](NC(=S)Nc3c(F)c(F)c(F)c(F)c3F)CC2)nc2ccccc12 [compound 192, N-(cis-4-{[4-(dimethylamino)quinazolin-2-yl]amino}cyclohexyl)-N′-(pentafluorophenyl)thiourea]
> 200 | CC(=O)c1ccc(NC(=S)N[C@H]2CC[C@@H](Nc3nc(N(C)C)c4ccccc4n3)CC2)cc1 [compound 154]
> 200 | COC(=O)NC[C@H]1CC[C@@H](Nc2nc(N(C)C)c3ccccc3n2)CC1 [compound 882]
50 to 200 | CN(C)c1nc(N[C@H]2CC[C@@H](CNC(=O)OCc3ccc([N+](=O)[O-])cc3)CC2)nc2ccccc12 [compound 875]
50 to 200 | CCOC(=O)c1ccc(NC(=O)N[C@H]2CC[C@@H](Nc3nc(N(C)C)c4ccccc4n3)CC2)cc1 [compound 30, ethyl 4-({[(cis-4-{[4-(dimethylamino)quinazolin-2-yl]amino}cyclohexyl)amino]carbonyl}amino)benzoate]
> 200 | CCCCc1ccc(NC(=O)N[C@H]2CC[C@@H](Nc3nc(N(C)C)c4ccccc4n3)CC2)cc1 [compound 832]
< 50 | COc1ccc(NC(=O)N[C@H]2CC[C@@H](Nc3nc(N(C)C)c4ccccc4n3)CC2)c(C)c1 [compound 827, N-(cis-4-{[4-(dimethylamino)quinazolin-2-yl]amino}cyclohexyl)-N′-(4-methoxy-2-methylphenyl)urea]

same assay, conditions: class by percent of control at 10^−7 M or by IC50; read-out: class

IC50 [nM] | SMILES
< 50 | CN(C)c1nc(N[C@H]2CC[C@@H](C(=O)NCc3ccc(Cl)nc3)CC2)nc2ccccc12 [Example 1136, cis-N-[(6-chloropyridin-3-yl)methyl]-4-{[4-(dimethylamino)quinazolin-2-yl]amino}cyclohexanecarboxamide]
< 50 | COc1cccc(Oc2ncccc2C(=O)N[C@H]2CC[C@@H](Nc3nc(N(C)C)c4ccccc4n3)CC2)c1OC [Example 1040, 2-(2,3-dimethoxyphenoxy)-N-(cis-4-{[4-(dimethylamino)quinazolin-2-yl]-amino}cyclohexyl)nicotinamide]
< 50 | CN(C)c1nc(N[C@H]2CC[C@@H](C(=O)NCc3ccccc3)CC2)nc2ccccc12 [Example 1135, cis-N-benzyl-4-{[4-(dimethylamino)quinazolin-2-yl]amino}cyclohexanecarboxamide]
> 200 | Cc1ccc(OCC(=O)N[C@H]2CC[C@@H](Nc3nc(N(C)C)c4ccccc4n3)CC2)cc1C [Example 1076, N-(cis-4-{[4-(dimethylamino)quinazolin-2-yl]amino}cyclohexyl)-2-(3,4-dimethylphenoxy)acetamide]
50 to 200 | CN(C)c1nc(N[C@H]2CC[C@@H](CNC(=O)Nc3cc(Cl)ccc3Cl)CC2)nc2ccccc12 [Example 1027, N-(2,5-dichlorophenyl)-N′-[(cis-4-{[4-(dimethylamino)quinazolin-2-yl]amino}cyclohexyl)methyl]urea]
50 to 200 | CC(C)CC(=O)Nc1cccc(C(=O)N[C@H]2CC[C@@H](Nc3nc(N(C)C)c4ccccc4n3)CC2)c1 [Example 1201, N-(cis-4-{[4-(dimethylamino)quinazolin-2-yl]amino}cyclohexyl)-3-[(3-methylbutanoyl)amino]benzamide]
< 50 | CN(C)c1nc(N[C@H]2CC[C@@H](NC(=O)[C@H](O)c3cccc(Cl)c3)CC2)nc2ccccc12 [Example 1111, (2R)-2-(3-chlorophenyl)-N-(cis-4-{[4-(dimethylamino)-quinazolin-2-yl]amino}cyclohexyl)-2-hydroxyacetamide]
< 50 | CN(C)c1nc(N[C@H]2CC[C@@H](NC(=O)c3ccc(Oc4ccc(Cl)cc4)nc3)CC2)nc2ccccc12 [Example 1060, 6-(4-chlorophenoxy)-N-(cis-4-{[4-(dimethylamino)quinazolin-2-yl]amino}cyclohexyl)nicotinamide]
